{
  "source": "patent US20040186166A1",
  "about": "“Cannabinoid analogs as peroxisome proliferator activated nuclear receptor gamma activators” (priority 2002, published 2004)",
  "key": {"[1]": {"molecular_target": "T1, mPPARγ1 (Mus musculus, UniProt P37238)", "T1 construct": "made in house; host or cells: reticulocyte lysate in vitro transcription/translation (Promega) from pCMX-mPPARγ1", "T1 sequence (P37238 1-475 isoform P37238-2)": "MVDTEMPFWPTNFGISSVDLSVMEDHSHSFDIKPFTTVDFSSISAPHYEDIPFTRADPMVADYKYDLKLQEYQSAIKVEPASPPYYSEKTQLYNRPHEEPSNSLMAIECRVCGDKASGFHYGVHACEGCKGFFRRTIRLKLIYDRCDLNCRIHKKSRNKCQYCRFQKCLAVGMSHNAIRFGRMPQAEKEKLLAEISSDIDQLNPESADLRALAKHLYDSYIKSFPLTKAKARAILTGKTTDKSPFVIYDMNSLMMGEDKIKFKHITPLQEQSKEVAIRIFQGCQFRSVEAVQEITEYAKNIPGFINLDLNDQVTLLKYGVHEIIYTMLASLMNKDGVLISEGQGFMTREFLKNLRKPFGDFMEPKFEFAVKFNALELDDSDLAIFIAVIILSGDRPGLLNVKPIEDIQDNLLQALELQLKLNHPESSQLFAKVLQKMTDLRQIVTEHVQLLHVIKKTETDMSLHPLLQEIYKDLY", "assay": "Partial protease (trypsin) digestion assay, PPARγ", "type": "binding", "experimental": "Partial protease digestion was carried out as described by Leng et. al. (J Steroid Biochem Mol Biol 46:643-61, 1993). PPAR proteins were made by in vitro transcription/translation reactions in reticulocyte lysate according to the manufacture's instructions (Promega). AJA, GW347845, or vehicle alone was incubated with the 35S-labeled PPARs at room temperature for one hour before trypsin digestion. Reactions were stopped by boiling in SDS-containing sample buffer, and lysates were subjected to SDS-PAGE and autoradiography.\nTo determine if AJA can bind to PPARγ, in vitro translated ^35S-labeled mPPARγ1 was incubated with AJA or a carrier vehicle before trypsin digestion. To test if AJA binds to PPARs, partial proteinase digestion assays were conducted as described previously (Leng et al., J Steroid Biochem Mol Biol 46:643-61, 1993). […] Such conformational change can be detected by limited proteinase digestion based on alteration of the accessibility of proteolytic sites on the surface of the receptors.\nThe PPAR proteins were synthesized and labeled with ^35S-methionine in reticulocyte lysate and incubated with AJA, GW347845, or vehicle alone at room temperature for one hour before trypsin digestion. […] The proteolytic patterns of PPAR proteins were then analyzed by SDS-PAGE and autoradiography, and compared with vehicle-treated control samples. […]"}, "[2]": {"tested_on": "human IL-8 promoter", "assay": "IL-8 promoter luciferase assay, HeLa cells with PPARγ ΔAF2 mutant", "type": "cell-based", "conditions": "cells transfected with PPARγ ΔAF2 mutant", "experimental": "For PPARγ activation assay, HEK293 cells were plated in 12-well cell culture plates and maintained in Dulbecco's modified Eagle's medium (DMEM) supplemented with 10% fetal bovine serum (FBS) at 37° C. under 5% CO2. Cells were changed to phenol red-free DMEM supplemented with 10% charcoal-stripped fetal bovine serum 3 hours before transfection by a standard calcium-phosphate precipitation method. Twelve hours after transfection, the cells were washed with phosphate-buffered saline (PBS) and fed again with fresh medium containing the indicated concentrations of compounds. After 36 hours, cells were harvested for β-galactosidase and luciferase activities as described previously (Li et al., Proc Natl Acad Sci USA 94:8479-84, 1997). The average normalized luciferase activity was determined via triplicate experiments. For IL-8 promoter assay, HeLa cells were maintained and transfected in the same way as described above. After transfection, cells were recovered for 4 hours before treatment with AJA, GW347845, or solvent. […]\nThe IL-8 luciferase reporter controlled by the human IL-8 promoter (-97/-69) was cotransfected with mPPARγ or mPPARγ ΔAF2 mutant into HeLa cells. […] The involvement of PPARγ in regulating IL-8 promoter activity was determined by comparing the IL-8 promoter activity in the presence of wild type PPARγ or its ΔAF2 mutant. […]"}},
  "data": [
    {"smiles": "CCCCCCC(C)(C)c1cc(O)c2c(c1)OC(C)(C)[C@@H]1CC=C(C(=O)O)C[C@@H]21", "note": "[AJA, dimethylheptyl-THC-11-oic acid]", "values": [
      {"measurement": "trypsin-resistant PPARγ fragments (protection from trypsin digestion)", "setting": "[1]; 20 μM AJA, 30 μg/ml trypsin, 30 or 60 min", "result": "Two prominent trypsin-resistant fragments of 30 and 24 kDa"},
      {"measurement": "proteinase-resistant PPARγ fragments, concentration dependence", "setting": "[1]; 2, 20 and 100 μM AJA", "result": "proteinase-resistant PPARγ fragments were observed"},
      {"measurement": "effect on IL-8 promoter activity", "setting": "[2]", "result": "no effect"}
    ]}
  ]
}
